Counter-ions that a name gives are not always drawn.
Legend:
[1] = system: Candida albicans(KCTC 1940), Aspergillus niger (ATCC 9642) and Saccharomyces cerevisiae; test: Relative antifungal activity by agar dilution method (vs Miconazole); assay type: cell-based;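 also: scores 5 to 7 mean a lower fungicidal concentration than Miconazole so higher is more potent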
From the text: Novel compounds represented by the above chemical formula (I), and the relative activities in accordance with the agar dilution method in Sabouraud dextrose agar media, Czapek agar media and Yeast Extract-Peptone-Dextrose agar media for Candida albicans(KCTC 1940), Aspergillus niger (ATCC 9642) and Saccharomyces cerevisiae are described respectively in following Table 1.

various kinds of Candida = test: MIC (Minimal Inhibitory Concentration) data; assay type: cell-based; conditions: unit assumed
[2] = agar dilution method, fungicidal concentration relative to control drug Miconazole (=4)

| Compound | melting point | Relative Activity [1, 2] | other results |
| --- | --- | --- | --- |
| CCCCc1ccc(C2=[N+](Cc3ccccc3F)CCc3cc4c(cc32)OCO4)cc1.[Cl-] | 101 °C | – | – |
| CC(C)(C)c1ccc(C2=[N+](Cc3ccccc3F)CCc3cc4c(cc32)OCO4)cc1.[Cl-] | 148 °C | – | – |
| CC(C)C1=[N+](Cc2ccccc2F)CCc2cc3c(cc21)OCO3.[Cl-] | 114 °C | – | – |
| CCCCCCCC1=[N+](Cc2ccccc2F)CCc2cc3c(cc21)OCO3.[Cl-] | 94 °C | – | – |
| COc1cc2c(cc1OC)C(CCc1ccc(C(C)(C)C)cc1)=[N+](Cc1cccc(OC)c1OCc1ccc(C(F)(F)F)cc1)CC2 (as salt: chloride) [Compound No. 132, 1-(2-(4-t-butylphenyl))ethyl-2-(2-(4-trifluoromethylbenzyloxy)-3-methoxyphenyl)methyl-3,4-dihydro-6,7-dimethoxy isoquinolinium chloride] | 60 °C | – | – |
| COc1cc2c(cc1OC)C(CCc1ccc(C(C)(C)C)cc1)=[N+](Cc1cccc(OC)c1OCc1c(F)c(F)c(C(F)(F)F)c(F)c1F)CC2 (as salt: chloride) [Compound No. 135, 1-(2-(4-t-butylphenyl))ethyl-2-(2-(2,3,5,6-tetrafluoro-4-trifluoromethylbenzyloxy)-3-methoxyphenyl)methyl-3,4-dihydro-6,7-dimethoxy isoquinolinium chloride] | 140 °C | – | – |
| COc1cc2cc[n+](Cc3cccc(OC)c3OCc3ccc(C(F)(F)F)cc3)c(CCc3ccc(C(C)(C)C)cc3)c2cc1OC (as salt: chloride) [Compound No. 149, 1-(2-(4-t-butylphenyl))ethyl-2-(2-(4-trifluoromethylbenzyloxy)-3-methoxyphenyl)methyl-6,7-dimethoxyisoquinolinium chloride] | 110 °C | – | – |
| CCCCCCCC1=[N+](Cc2ccccc2F)CCc2cc(OC)c(OC)cc21.[Cl-] [Compound No. 11, 1-n-heptyl-2-(2-fluorophenyl)methyl-3,4-dihydro-6,7-dimethoxyisoquinolinium chloride] | 112 °C | 4 | – |
| COc1cc2c(cc1OC)C(c1cc(F)cc(F)c1)=[N+](Cc1ccccc1F)CC2.[Cl-] [Compound No. 18, 1-(3,5-difluorophenyl)-2-(2-fluorophenyl)methyl-3,4-dihydro-6,7-dimethoxyisoquinolinium chloride] | 118 °C | 6 | – |
| COc1cc2c(cc1OC)C(c1ccc(C(C)(C)C)cc1)=[N+](Cc1ccccc1F)CC2.[Cl-] [Compound No. 22, 1-(4-t-butylphenyl)-2-(2-fluorophenyl)methyl-3,4-dihydro-6,7-dimethoxyisoquinolinium chloride] | 125 °C | 6 | – |
| COc1cc2c(cc1OC)C(Cc1ccc(Cl)cc1Cl)=[N+](Cc1ccccc1F)CC2.[Cl-] [Compound No. 25, 1-(2,4-dichlorophenyl)methyl-2-(2-fluorophenyl)methyl-3,4-dihydro-6,7-dimethoxyisoquinolinium chloride] | 182 °C | 6 | – |
| COc1cc2c(cc1OC)C(C)=[N+](Cc1ccc(F)c(F)c1)CC2.[Cl-] [Compound No. 39, 1-methyl-2-(3,4-difluorophenyl)methyl-3,4-dihydro-6,7-dimethoxyisoquinolinium chloride] | 88 °C | 6 | – |
| COc1cc2c(cc1OC)C(c1ccc(C(C)(C)C)cc1)=[N+](Cc1ccc(F)c(F)c1)CC2.[Cl-] [Compound No. 48, 1-(4-t-butylphenyl)-2-(3,4-difluorophenyl)methyl-3,4-dihydro-6,7-dimethoxyisoquinolinium chloride] | 97 °C | 6 | – |
| COc1cc2c(cc1OC)C(CCc1ccc(C(C)(C)C)cc1)=[N+](Cc1cccc(OC)c1OCc1ccc(C(F)(F)F)cc1)CC2 [Compound No. 132, 1-(2-(4-t-butylphenyl))ethyl-2-(2-(4-trifluoromethylbenzyloxy)-3-methoxyphenyl)methyl-3,4-dihydro-6,7-dimethoxy isoquinolinium chloride] | – | 1 | MIC (various kinds of Candida; C. albicans ATCC 11651): 3.12 µg/mL; MIC (various kinds of Candida; C. albicans ATCC 28838): 1.56 µg/mL; MIC (various kinds of Candida; C. albicans IFO 1385): 6.25 µg/mL; MIC (various kinds of Candida; C. albicans OY-003): 3.12 µg/mL; MIC (various kinds of Candida; C. albicans OY-019): 3.12 µg/mL; MIC (various kinds of Candida; C. albicans U.K): 1.56 µg/mL; MIC (various kinds of Candida; C. glabrata): 12.5 µg/mL; MIC (various kinds of Candida; C. glulliermondi): 3.12 µg/mL; MIC (various kinds of Candida; C. krusei (KCTC7273)): 1.56 µg/mL; MIC (various kinds of Candida; C. parapsilosis): 6.5 µg/mL |
| COc1cc2c(cc1OC)C(CCc1ccc(C(C)(C)C)cc1)=[N+](Cc1cccc(OC)c1OCc1c(F)c(F)c(C(F)(F)F)c(F)c1F)CC2 [Compound No. 135, 1-(2-(4-t-butylphenyl))ethyl-2-(2-(2,3,5,6-tetrafluoro-4-trifluoromethylbenzyloxy)-3-methoxyphenyl)methyl-3,4-dihydro-6,7-dimethoxy isoquinolinium chloride] | – | 2 | MIC (various kinds of Candida; C. albicans ATCC 11651): 6.25 µg/mL; MIC (various kinds of Candida; C. albicans ATCC 28838): 3.12 µg/mL; MIC (various kinds of Candida; C. albicans IFO 1385): 6.25 µg/mL; MIC (various kinds of Candida; C. albicans OY-003): 3.12 µg/mL; MIC (various kinds of Candida; C. albicans OY-019): 6.25 µg/mL; MIC (various kinds of Candida; C. albicans U.K): 6.25 µg/mL; MIC (various kinds of Candida; C. glabrata): 12.5 µg/mL; MIC (various kinds of Candida; C. glulliermondi): 3.12 µg/mL; MIC (various kinds of Candida; C. krusei (KCTC7273)): 1.56 µg/mL; MIC (various kinds of Candida; C. parapsilosis): 12.5 µg/mL |
| COc1cc2cc[n+](Cc3cccc(OC)c3OCc3ccc(C(F)(F)F)cc3)c(CCc3ccc(C(C)(C)C)cc3)c2cc1OC [Compound No. 149, 1-(2-(4-t-butylphenyl))ethyl-2-(2-(4-trifluoromethylbenzyloxy)-3-methoxyphenyl)methyl-6,7-dimethoxyisoquinolinium chloride] | – | – | MIC (various kinds of Candida; C. albicans ATCC 11651): 0.78 µg/mL; MIC (various kinds of Candida; C. albicans ATCC 28838): 1.56 µg/mL; MIC (various kinds of Candida; C. albicans IFO 1385): 3.12 µg/mL; MIC (various kinds of Candida; C. albicans OY-003): 0.78 µg/mL; MIC (various kinds of Candida; C. albicans OY-019): 1.56 µg/mL; MIC (various kinds of Candida; C. albicans U.K): 0.78 µg/mL; MIC (various kinds of Candida; C. albicnas ATCC 10231): 0.78 µg/mL; MIC (various kinds of Candida; C. glabrata): 6.25 µg/mL; MIC (various kinds of Candida; C. glulliermondi): 1.56 µg/mL; MIC (various kinds of Candida; C. krusei (KCTC7273)): 1.56 µg/mL; MIC (various kinds of Candida; C. parapsilosis): 6.25 µg/mL; Relative Activity ([1]; antifungal activity relative to Miconazole, agar dilution): 1 |

Further lines, with some results ahead:

| melting point | Compound | Relative Activity [1, 2] | other results |
| --- | --- | --- | --- |
| 103 °C | COc1cc2c(cc1OC)C(CCc1ccc(C(C)(C)C)cc1)=[N+](Cc1ccccc1F)CC2 (as salt: chloride) [Compound No. 124, 1-(2-(4-t-butylphenyl))ethyl-2-(2-fluorophenyl)methyl-3,4-dihydro-6,7-dimethoxyisoquinolinium chloride] | – | – |
| 100 °C | COc1ccc(C[N+]2=C(CCc3ccc(C(C)(C)C)cc3)c3cc(OC)c(OC)cc3CC2)cc1OC (as salt: chloride) [Compound No. 125, 1-(2-(4-t-butylphenyl))ethyl-2-(3,4-dimethoxyphenyl)methyl-3,4-dihydro-6,7-dimethoxyisoquinolinium chloride] | – | – |
| 63 °C | COc1cc2c(cc1OC)C(CCc1ccc(C(C)(C)C)cc1)=[N+](Cc1cccc(OC)c1OCc1c(F)cccc1Cl)CC2 (as salt: chloride) [Compound No. 133, 1-(2-(4-t-butylphenyl))ethyl-2-(2-(2-chloro-6-fluorobenzyloxy)-3-methoxyphenyl)methyl-3,4-dihydro-6,7-dimethoxyisoquinolinium chloride] | – | – |
| 117 °C | COc1cc2c(cc1OC)C(c1ccc(C(C)(C)C)cc1)=[N+](Cc1ccccc1Cl)CC2.[Cl-] [Compound No. 55, 1-(4-t-butylphenyl)-2-(2-chlorophenyl)methyl-3,4-dihydro-6,7-dimethoxyisoquinolinium chloride] | 6 | – |
| 196 °C | CCCCCC1=[N+](Cc2c(F)cccc2F)CCc2cc(OC)c(OC)cc21.[Cl-] [Compound No. 57, 1-n-pentyl-2-(2,6-difluorophenyl)methyl-3,4-dihydro-6,7-dimethoxyisoquinolinium chloride] | 6 | – |
| 104 °C | CCCCCCCCCCCCCCCC1=[N+](Cc2c(F)cccc2F)CCc2cc(OC)c(OC)cc21.[Cl-] [Compound No. 60, 1-n-pentadecyl-2-(2,6-difluorophenyl)methyl-3,4-dihydro-6,7-dimethoxyisoquinolinium chloride] | 1 | – |
| 79 °C | COc1cc2c(cc1OC)C(c1ccccc1F)=[N+](Cc1c(F)cccc1F)CC2.[Cl-] [Compound No. 62, 1-(2-fluorophenyl)-2-(2,6-difluorophenyl)methyl-3,4-dihydro-6,7-dimethoxyisoquinolinium chloride] | 6 | – |
| 102 °C | COc1ccc2c(c1)CC[N+](Cc1ccccc1F)=C2C(C)C.[Cl-] [Compound No. 83, 1-i-propyl-2-(2-fluorophenyl)methyl-3,4-dihydro-6-methoxyisoquinolinium chloride] | 6 | – |
| 88 °C | CC1=[N+](Cc2ccc(F)c(F)c2)CCc2cc3c(cc21)OCO3.[Cl-] [Compound No. 111, 1-methyl-2-(3,4-difluorophenyl)methyl-3,4-dihydro-6,7-methylenedioxyisoquinolinium chloride] | 6 | – |
| 34 °C | CCCCCCC1=[N+](Cc2ccc(C(C)(C)C)cc2)CCc2cc(OC)c(OC)cc21.[Cl-] [Compound No. 126, 1-hexyl-2-(4-t-butylphenyl)methyl-3,4-dihydro-6,7-dimethoxy isoquinolinium chloride] | 4 | – |
| 166 °C | CCCCCCCCCCCCCCCC1=[N+](Cc2ccc(C(C)(C)C)cc2)CCc2cc(OC)c(OC)cc21.[Cl-] [Compound No. 128, 1-pentadecyl-2-(4-t-butylphenyl)methyl-3,4-dihydro-6,7-dimethoxy isoquinolinium chloride] | 1 | – |
| 105 °C | COc1cc2c(cc1OC)C(C)=[N+](Cc1cccc(OC)c1OCc1ccc(C(C)(C)C)cc1)CC2.[Cl-] [Compound No. 138, 1-methyl-2-(2-(4-t-butylbenzyloxy)-3-methoxyphenyl)methyl-3,4-dihydro-6,7-dimethoxy isoquinolinium chloride] | 6 | – |

Source: patent US20090221829A1 (priority 2005, published 2009)
